This note sets out measurements from US20200407393A1, “Medical Use” (priority 2018, published 2020).

pIC50: −log10 of the molar value. Where two headings read alike, the source gives them in different places.

For experiment [1], the system named is M184V pseudotyped virus in U373 cells. In kind it is cell-based, HIV.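 Further: reported value is IC50.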
For experiment [2], the system named is WT pseudotyped virus (NL4-3 provirus with HIV gp160 envelope) in U373 cells. Nature of the experiment: PSV assay (pseudotyped virus assay), WT. To be noted: read-out: WT IC50.
Source text: A pseudotyped virus assay (PSV) was used to assess the potency of the compounds. Replication defective virus was produced by co-transfection of a plasmid containing an NL4-3 provirus [containing a mutation in the envelope open reading frame (ORF) and a luciferase reporter gene replacing the nef ORF] and a CMV-promoter expression plasmid containing an ORF for various HIV gp160 envelope clones. The harvested virus was stored at −80 C in small aliquots and the titer of the virus measured to produce a robust signal for antiviral assays.
The PSV assay was performed by using U373 cells stably transformed to express human CD4, the primary receptor for HIV entry and either human CXCR4 or human CCR5 which are the co-receptors required for HIV entry as target cells for infection. […] This dose-range was applied to U373 cells and the pre-made pseudotyped virus added. The amount of luciferase signal produced after 3 days of culture was used to reflect the level of pseudotyped virus infection. […] IC50 values were determined from a 10 point dose response curve using 3-4-fold serial dilution for each compound, which spans a concentration range>1000 fold.
These values are plotted against the molar compound concentrations using the standard four parameter logistic equation:
y=((Vmax*x^n)/(K^n+x^n))+Y2 • where: • Y2=minimum y n=slope factor • Vmax=maximum y x=compound concentration [M] • K=EC50
Where [3] appears, read: Table 5, mean of a greater number of data replicates.
Setting [4] is: Human immunodeficiency virus 1, NL43, U373 MG.
The mark [5] stands for this setting: Table 4, luciferase signal after 3 days of culture.
[6] abbreviates: Human immunodeficiency virus 1, NL43, U373 MG, 72 h.

One may read the pIC50 as the IC50 on a negative log10 scale, so that one unit is a factor of ten. Turning to “((2R,3S,5R)-5-(6-amino-2-fluoro-9H-purin-9-yl)-2-ethynyl-3-hydroxytetrahydrofuran-2-yl)methyl tetracosanoate [Example 16]”, the pIC50 in experiment [1] (setting [3]) is 4.97; in experiment [2] (setting [3]), 5.64.
For the compound `C#C[C@]1(COC(=O)CCCCCCCCCC)O[C@@H](n2cnc3c(N)nc(F)nc32)C[C@@H]1O` [Example 12, ((2R,3S,5R)-5-(6-amino-2-fluoro-9H-purin-9-yl)-2-ethynyl-3-hydroxytetrahydrofuran-2-yl)methyl undecanoate], the pIC50 in experiment [1] (setting [3]) is 8.05; in experiment [2] (setting [4]), 8.70.
In the same order, the values of `C#C[C@]1(COC(=O)CC)O[C@@H](n2cnc3c(N)nc(F)nc32)C[C@@H]1O` [Example 8, ((2R,3S,5R)-5-(6-amino-2-fluoro-9H-purin-9-yl)-2-ethynyl-3-hydroxytetrahydrofuran-2-yl)methyl propionate] are 7.41 and 8.10.
For the compound `C#C[C@]1(COC(=O)CCCCCCCCC)O[C@@H](n2cnc3c(N)nc(F)nc32)C[C@@H]1O` [Example 3, ((2R,3S,5R)-5-(6-amino-2-fluoro-9H-purin-9-yl)-2-ethynyl-3-hydroxytetrahydrofuran-2-yl)methyl decanoate], the pIC50 in experiment [1] (setting [5]) was 7.82; in experiment [1] (setting [3]), 7.85; in experiment [2] (setting [6]), 8.70; in experiment [2] (setting [4]), 8.52.
Take `C#C[C@]1(COC(C)=O)O[C@@H](n2cnc3c(N)nc(F)nc32)C[C@@H]1O` [Example 7, ((2R,3S,5R)-5-(6-amino-2-fluoro-9H-purin-9-yl)-2-ethynyl-3-hydroxytetrahydrofuran-2-yl)methyl acetate]: the pIC50 was 7.26 in experiment [1] (setting [3]) and 7.85 in experiment [2] (setting [4]).
For `C#C[C@]1(COC(=O)CCCCCCCCCCCCCCCC)O[C@@H](n2cnc3c(N)nc(F)nc32)C[C@@H]1O` [Example 15, ((2R,3S,5R)-5-(6-amino-2-fluoro-9H-purin-9-yl)-2-ethynyl-3-hydroxytetrahydrofuran-2-yl)methyl heptadecanoate] the same measures were 7.59 and 8.40.
For `C#C[C@]1(COC(=O)CCCCCCCC#CC)O[C@@H](n2cnc3c(N)nc(F)nc32)C[C@@H]1O` [Example 17, ((2R,3S,5R)-5-(6-amino-2-fluoro-9H-purin-9-yl)-2-ethynyl-3-hydroxytetrahydrofuran-2-yl)methyl undec-9-ynoate] the same measures were 7.89 and 8.52.
For `C#C[C@]1(COC(=O)CCCCCCCCCCCC)O[C@@H](n2cnc3c(N)nc(F)nc32)C[C@@H]1O` [Example 13, ((2R,3S,5R)-5-(6-amino-2-fluoro-9H-purin-9-yl)-2-ethynyl-3-hydroxytetrahydrofuran-2-yl)methyl tridecanoate], the pIC50 is 7.92 in experiment [1] (setting [3]) and 8.70 in experiment [2] (setting [4]).
In the same order, the values of `C#C[C@]1(COC(=O)C(CCCC)CCCCCC)O[C@@H](n2cnc3c(N)nc(F)nc32)C[C@@H]1O` (stereo partly drawn) [Example 21, ((2R,3S,5R)-5-(6-amino-2-fluoro-9H-purin-9-yl)-2-ethynyl-3-hydroxytetrahydrofuran-2-yl)methyl 2-butyloctanoate] are 6.95 and 7.60.
For `C#C[C@]1(COC(=O)C(C)CCCCC)O[C@@H](n2cnc3c(N)nc(F)nc32)C[C@@H]1O` (stereo partly drawn) [Example 23, ((2R,3S,5R)-5-(6-amino-2-fluoro-9H-purin-9-yl)-2-ethynyl-3-hydroxytetrahydrofuran-2-yl)methyl 2-methylheptanoate] the same measures were 8.15 and 9.00.
`C#C[C@]1(COC(=O)C(CCCCCC)CCCCCCCC)O[C@@H](n2cnc3c(N)nc(F)nc32)C[C@@H]1O` (stereo partly drawn) [Example 22, ((2R,3S,5R)-5-(6-amino-2-fluoro-9H-purin-9-yl)-2-ethynyl-3-hydroxytetrahydrofuran-2-yl)methyl 2-hexyldecanoate]: the pIC50 in experiment [1] (setting [3]) is 6.75; in experiment [2] (setting [4]) it was 7.44.
In the same order, the values of `C#C[C@]1(COC(=O)C(C)(C)CCC)O[C@@H](n2cnc3c(N)nc(F)nc32)C[C@@H]1O` [Example 20, ((2R,3S,5R)-5-(6-amino-2-fluoro-9H-purin-9-yl)-2-ethynyl-3-hydroxytetrahydrofuran-2-yl)methyl 2,2-dimethylpentanoate] are 7.04 and 7.60.
In the same order, the values of `C#C[C@]1(COC(=O)CCC)O[C@@H](n2cnc3c(N)nc(F)nc32)C[C@@H]1O` [Example 9, ((2R,3S,5R)-5-(6-amino-2-fluoro-9H-purin-9-yl)-2-ethynyl-3-hydroxytetrahydrofuran-2-yl)methyl butyrate] are 7.59 and 8.30.
In the same order, the values of `C#C[C@]1(COC(=O)CC(F)(F)F)O[C@@H](n2cnc3c(N)nc(F)nc32)C[C@@H]1O` [Example 24, ((2R,3S,5R)-5-(6-amino-2-fluoro-9H-purin-9-yl)-2-ethynyl-3-hydroxytetrahydrofuran-2-yl)methyl 3,3,3-trifluoropropanoate] are 7.43 and 8.10.
Turning to `C#C[C@]1(COC(=O)CCCC)O[C@@H](n2cnc3c(N)nc(F)nc32)C[C@@H]1O` [Example 10, ((2R,3S,5R)-5-(6-amino-2-fluoro-9H-purin-9-yl)-2-ethynyl-3-hydroxytetrahydrofuran-2-yl)methyl pentanoate], the pIC50 in experiment [1] (setting [3]) was 7.72; in experiment [2] (setting [4]), 8.52.
For `C#C[C@]1(COC(=O)CCCCCCCC)O[C@@H](n2cnc3c(N)nc(F)nc32)C[C@@H]1O` [Example 11, ((2R,3S,5R)-5-(6-amino-2-fluoro-9H-purin-9-yl)-2-ethynyl-3-hydroxytetrahydrofuran-2-yl)methyl nonanoate] the same measures were 7.89 and 8.52.
For `C#C[C@]1(COC(=O)C(C)(C)C)O[C@@H](n2cnc3c(N)nc(F)nc32)C[C@@H]1O` [Example 19, ((2R,3S,5R)-5-(6-amino-2-fluoro-9H-purin-9-yl)-2-ethynyl-3-hydroxytetrahydrofuran-2-yl)methyl pivalate], the figures for the pIC50 in experiment [1] (setting [3]) and in experiment [2] (setting [4]) were 6.82 and 7.52, respectively.
With `C#C[C@]1(COC(=O)CCCCCC)O[C@@H](n2cnc3c(N)nc(F)nc32)C[C@@H]1O` [Example 2, ((2R,3S,5R)-5-(6-amino-2-fluoro-9H-purin-9-yl)-2-ethynyl-3-hydroxytetrahydrofuran-2-yl)methyl heptanoate], the pIC50 was 7.92 in experiment [1] (setting [5]), 7.82 in experiment [1] (setting [3]), 8.52 in experiment [2] (setting [6]) and 8.52 in experiment [2] (setting [4]).
Turning to `C#C[C@]1(COC(=O)CCCCCCCC#CCCCCCCCC)O[C@@H](n2cnc3c(N)nc(F)nc32)C[C@@H]1O` [Example 18, ((2R,3S,5R)-5-(6-amino-2-fluoro-9H-purin-9-yl)-2-ethynyl-3-hydroxytetrahydrofuran-2-yl)methyl octadec-9-ynoate], the pIC50 in experiment [1] (setting [3]) is 7.85; in experiment [2] (setting [4]) it was 8.70.
For `C#C[C@]1(COC(=O)C(C)(C)C(F)(F)F)O[C@@H](n2cnc3c(N)nc(F)nc32)C[C@@H]1O` [Example 25, ((2R,3S,5R)-5-(6-amino-2-fluoro-9H-purin-9-yl)-2-ethynyl-3-hydroxytetrahydrofuran-2-yl)methyl 3,3,3-trifluoro-2,2-dimethylpropanoate] the same measures were 7.05 and 7.68.
